Data on 27 compounds can be found in patent US6664231B1, “Anti-fungal peptides” (priority 1993, dated 2003).

Square brackets hold non-standard residues; d marks the D form. Peptide text beside a SMILES is read from it. Phe(4-NH2) = Nc1ccc(C[C@H](N)C(=O)O)cc1; 1Nal = N[C@@H](Cc1cccc2ccccc12)C(=O)O; NMeL = CN[C@@H](CC(C)C)C(=O)O; NMeV = CN[C@H](C(=O)O)C(C)C

The subject of the first experiment is C. albicans (CA-1, Strain SLU-1). As to the kind of experiment: Radial diffusion assay. The experiment is classed as cell-based, Candida albicans. Particulars: HPLC-purified peptide; nanomoles required to achieve a net 30 mm^2 zone (log titration curve). As to the method:
In the radial diffusion assay procedures, the CA-1 cultures and peptide solutions were prepared as in the broth assay procedure described above. Ten mL of molten underlayer agarose comprising 3% Sabouraud Dextrose broth, 1% agarose (Pharmacia, Piscataway, N.J.), 0.02% Tween 20, and 10 mM sodium phosphate at pH 7.4, was added to polystyrene tubes and maintained in a 56° C. water bath until the addition of yeast. Tubes were cooled to approximately 45° C., yeast were added to give a final concentration of 1×10^6 CFU/mL, and the tubes were mixed again by inverting. The contents were poured into level square petri dishes and distributed evenly. […] A series of wells were punched into the hardened agarose using a sterile 3 mm punch attached to a vacuum apparatus.
Peptides to be assayed were 2-fold serially diluted in Dulbecco's PBS (D-PBS) starting from a concentration of approximately 1 mg/mL. Five μL of each dilution were added to each well and the plates were incubated at 37° C. for 3 hours. An overlayer of 10 mL of molten agarose comprising 6% Sabouraud Dextrose broth, 1% agarose, and 10 mM sodium phosphate, pH 7.4, (at approximately 45° C.) was then added and plates were incubated overnight at 37° C. Following this overnight incubation, a dilute Coomassie solution was poured into the plates and allowed to stain for 24 hours.
Clear zones of growth inhibition around each well were measured with calipers. The actual area of growth inhibition (mm^2) was calculated by subtracting the area of the well. Table 1 below sets out the results of the radial diffusion assays for tested peptides in terms of the number of picomoles (pmol) of peptide required to establish a 30 mm^2 area of growth inhibition calculated by PROBIT analysis (e.g., calculated from regression of the linear portion of log-concentration dose-response curve, log pmol/well vs. net area of inhibition).
As to H-KVKWLIQLFHK-NH2 [Peptide 288], the “Plate Assay (nmol), pure peptide activity” value is given as 0.279 nmol.

Still in this experiment, the particulars now being: crude peptide; nanomoles required to achieve a net 30 mm^2 zone (log titration curve).
With H-KVKWLIQLFHK-NH2 [Peptide 288], the “Plate Assay (nmol), crude peptide activity” value came out at 3.639 nmol.
On the same count and under the same terms, for H-SKVKWL-NH2 [Peptide 312] the value was >11.20 nmol.
The same measure, in the same setting: for H-VKWLIQLFHK-NH2 [Peptide 292] the value was >4.063 nmol.
The same measure, in the same setting: under H-SKVKWLIQLF-NH2 [Peptide 290] stands >2.233 nmol.

Still in this experiment, the particulars now being: pmoles of peptide added to well to achieve a 30 mm^2 zone, PROBIT analysis; crude or purified (P′) peptide.
In the case of H-KSKVGWLIRLFHKK-NH2 [XMP.265], the “C. albicans pmol/30 mm^2 zone” value is 2,996 pmol/30 mm^2 zone.
The same measure, in the same setting: for H-KVKWLIQL-NH2 [XMP.300] the value was 1,957 pmol/30 mm^2 zone; for `CC[C@H](C)[C@H](NC(=O)[C@H](CC(C)C)NC(=O)[C@H](Cc1c[nH]c2ccccc12)NC(=O)CNC(=O)[C@@H](NC(=O)[C@H](CCCCN)NC(=O)[C@H](CO)NC(=O)[C@@H](N)CCCCN)C(C)C)C(=O)N[C@@H](CCC(N)=O)C(=O)N[C@@H](CC(C)C)C(=O)N[C@@H](Cc1ccccc1)C(=O)N[C@@H](Cc1cccc2ccccc12)C(=O)N[C@@H](CCCCN)C(=O)N[C@@H](Cc1cccc2ccccc12)C(N)=O` [XMP.146] (H-KSKVGWLIQLF[1Nal]K[1Nal]-NH2), “b (No detectable activity up to 5 μg/well)”.
For the compound H-WLIQLK-NH2 [XMP.321], the “C. albicans pmol/30 mm^2 zone” value is >5,851 pmol/30 mm^2 zone.
`CC[C@H](C)[C@H](NC(=O)[C@H](CC(C)C)NC(=O)[C@H](Cc1c[nH]c2ccccc12)NC(=O)CNC(=O)[C@@H](NC(=O)[C@H](CCCCN)NC(=O)[C@H](CO)NC(=O)[C@@H](N)CCCCN)C(C)C)C(=O)N[C@@H](Cc1ccc(N)cc1)C(=O)N[C@@H](CC(C)C)C(=O)N[C@@H](Cc1c[nH]c2ccccc12)C(=O)N[C@@H](Cc1c[nH]cn1)C(=O)N[C@@H](CCCCN)C(=O)N[C@@H](CCCCN)C(N)=O` [XMP.239] (H-KSKVGWLI[Phe(4-NH2)]LWHKK-NH2): the “C. albicans pmol/30 mm^2 zone” value is >2,802 pmol/30 mm^2 zone.
In the case of `CC[C@H](C)[C@H](NC(=O)[C@H](CC(C)C)NC(=O)[C@H](NC(=O)CNC(=O)[C@@H](NC(=O)[C@H](CCCCN)NC(=O)[C@H](CO)NC(=O)[C@@H](N)CCCCN)C(C)C)C(C)C)C(=O)N[C@@H](CCC(N)=O)C(=O)N[C@@H](CC(C)C)C(=O)N[C@@H](Cc1ccccc1)C(=O)N[C@@H](Cc1c[nH]cn1)C(=O)N[C@@H](CCCCN)C(=O)N[C@@H](CCCCN)C(N)=O` [XMP.253] (H-KSKVG[dV]LIQLFHKK-NH2), the “C. albicans pmol/30 mm^2 zone” value is 1,108 pmol/30 mm^2 zone.
H-VKWLIQLFHKK-NH2 [XMP.289]: the “C. albicans pmol/30 mm^2 zone” value is on record as 1,542 pmol/30 mm^2 zone.
Same read-out and setting: under H-ASKVGWLIQLFHKK-NH2 [XMP.31] stands 426 pmol/30 mm^2 zone; under H-KSKVGGLIQLFHKK-NH2 [XMP.249], 1,242 pmol/30 mm^2 zone; under H-SKVKWLIQL-NH2 [XMP.294], >4,634 pmol/30 mm^2 zone.
Same read-out and setting: for `CC[C@H](C)[C@H](NC(=O)[C@H](CC(C)C)NC(=O)[C@H](CC(C)C)N(C)C(=O)CNC(=O)[C@@H](NC(=O)[C@H](CCCCN)NC(=O)[C@H](CO)NC(=O)[C@@H](N)CCCCN)C(C)C)C(=O)N[C@@H](CCC(N)=O)C(=O)N[C@@H](CC(C)C)C(=O)N[C@@H](Cc1ccccc1)C(=O)N[C@@H](Cc1c[nH]cn1)C(=O)N[C@@H](CCCCN)C(=O)N[C@@H](CCCCN)C(N)=O` [XMP.261] (H-KSKVG[NMeL]LIQLFHKK-NH2) the value was 867 pmol/30 mm^2 zone; for `CC[C@H](C)[C@H](NC(=O)[C@H](CC(C)C)NC(=O)[C@H](C(C)C)N(C)C(=O)CNC(=O)[C@@H](NC(=O)[C@H](CCCCN)NC(=O)[C@H](CO)NC(=O)[C@@H](N)CCCCN)C(C)C)C(=O)N[C@@H](CCC(N)=O)C(=O)N[C@@H](CC(C)C)C(=O)N[C@@H](Cc1ccccc1)C(=O)N[C@@H](Cc1c[nH]cn1)C(=O)N[C@@H](CCCCN)C(=O)N[C@@H](CCCCN)C(N)=O` [XMP.260] (H-KSKVG[NMeV]LIQLFHKK-NH2), 742 pmol/30 mm^2 zone; for “XMP.390: 151-161, K @ 151 (V), P @ 152 (G) (SEQ ID NO:221) (KPWLIQLFHKK)”, 674 pmol/30 mm^2 zone.
For H-KSKVKALIQLFHKK-NH2 [XMP.161], the “C. albicans pmol/30 mm^2 zone” value is given as >2999 pmol/30 mm^2 zone.
With H-KSKAGWLIQLFHKK-NH2 [XMP.34], the “C. albicans pmol/30 mm^2 zone” value worked out at 319 pmol/30 mm^2 zone.
On the same count and under the same terms, under `CC[C@H](C)[C@H](NC(=O)[C@H](CC(C)C)NC(=O)[C@H](Cc1c[nH]c2ccccc12)NC(=O)[C@H](Cc1ccc(N)cc1)NC(=O)[C@@H](NC(=O)[C@H](CCCCN)NC(=O)[C@H](CO)NC(=O)[C@@H](N)CCCCN)C(C)C)C(=O)N[C@@H](CCC(N)=O)C(=O)N[C@@H](Cc1cccc2ccccc12)C(=O)N[C@@H](Cc1ccccc1)C(=O)N[C@@H](Cc1c[nH]cn1)C(=O)N[C@@H](CCCCN)C(=O)N[C@@H](CCCCN)C(N)=O` [XMP.236] (H-KSKV[Phe(4-NH2)]WLIQ[1Nal]FHKK-NH2) stands >2,631 pmol/30 mm^2 zone; under H-GWLIQLFHKKIESALRNKMNS-NH2 [XMP.55], >2666 pmol/30 mm^2 zone.
Regarding “H-KSKVGWLILLFHKKKSKVGWLILLFHKK-NH2 [XMP.272]”, the “C. albicans pmol/30 mm^2 zone” value was >2,599 pmol/30 mm^2 zone.
As to H-KSKVKVAIQLFHKK-NH2 [XMP.269], the “C. albicans pmol/30 mm^2 zone” value was determined as 635 pmol/30 mm^2 zone.
For `CC[C@H](C)[C@H](NC(=O)[C@H](CC(C)C)NC(=O)[C@H](Cc1c[nH]c2ccccc12)NC(=O)CNC(=O)[C@@H](NC(=O)[C@H](CCCCN)NC(=O)[C@H](CO)NC(=O)[C@@H](N)CCCCN)C(C)C)C(=O)N[C@@H](CCC(N)=O)C(=O)N[C@@H](CC(C)C)C(=O)N[C@@H](Cc1ccccc1)C(=O)N[C@@H](Cc1c[nH]cn1)C(=O)N[C@@H](CCCCN)C(=O)N[C@@H](Cc1cccc2ccccc12)C(N)=O` [XMP.111] (H-KSKVGWLIQLFHK[1Nal]-NH2), the “C. albicans pmol/30 mm^2 zone” value is >2809 pmol/30 mm^2 zone.
As for H-KSKVGWLIDLFHKK-NH2 [XMP.264], the “C. albicans pmol/30 mm^2 zone” value was determined as 879 pmol/30 mm^2 zone.
Take `CC[C@H](C)[C@H](NC(=O)[C@H](CC(C)C)NC(=O)[C@H](Cc1c[nH]c2ccccc12)NC(=O)CNC(=O)[C@@H](NC(=O)[C@H](CCCCN)NC(=O)[C@H](CO)NC(=O)[C@@H](N)CCCCN)C(C)C)C(=O)N[C@@H](CCC(N)=O)C(=O)N[C@@H](Cc1cccc2ccccc12)C(=O)N[C@@H](Cc1c[nH]c2ccccc12)C(=O)N[C@@H](Cc1c[nH]cn1)C(=O)N[C@@H](CCCCN)C(=O)N[C@@H](CCCCN)C(N)=O` [XMP.237] (H-KSKVGWLIQ[1Nal]WHKK-NH2): the “C. albicans pmol/30 mm^2 zone” value was >2,777 pmol/30 mm^2 zone.
On the same count and under the same terms, under “XMP.384: K - K - L - L - L - L - Q - K - K (SEQ ID NO:215) (KKLLLLQKK)” stands 2,804 pmol/30 mm^2 zone.

Staying with this experiment, now noted: pmoles of peptide added to well to achieve a 30 mm^2 zone, PROBIT analysis; crude or purified (P′) peptide; listed as XMP.289P′.
Consider H-VKWLIQLFHKK-NH2 [XMP.289], for which the “C. albicans pmol/30 mm^2 zone” value is listed as 658 pmol/30 mm^2 zone.

Staying with this experiment, now noted: pmoles of peptide added to well to achieve a 30 mm^2 zone, PROBIT analysis; crude or purified (P′) peptide; listed as XMP.300P′.
Consider H-KVKWLIQL-NH2 [XMP.300], for which the “C. albicans pmol/30 mm^2 zone” value is recorded as 993 pmol/30 mm^2 zone.
